Patent US4898859A, “2-Oxa-isocephem compounds and compositions containing same” (Otsuka Pharmaceutical Co., Ltd., priority 1987, dated 1990)
Converted amounts (≈) assume the structure as drawn. Where a name gives a salt, the structure may show the parent alone.

Key:
Assay type in all cases: cell-based
[1] = tested on: P. mirabilis 1287; experiment: antimicrobial activity in vitro, MIC by agar plate dilution method, P. mirabilis 1287; conditions: Proteus mirabilis, inoculum 1×10^6 cells/ml, read-out: minimal inhibitory concentration (MIC)
Protocol: (§1) In order to investigate the in vitro activity of the under-mentioned compounds against various bacteria, the minimal inhibitory concentration (MIC) values were determined by the agar plate dilution method [see Chemotherapy, 22, 1126-1128 (1974)].
(§2) Each test inoculum was adjusted to 1×10^6 cells/ml (O.D., 600 mμ: 0.07-0.16).

[2] = tested on: S. marcescens IFO-12648; experiment: antimicrobial activity in vitro, MIC by agar plate dilution method, S. marcescens IFO-12648; conditions: Serratia marcescens, IFO12648, inoculum 1×10^6 cells/ml, read-out: minimal inhibitory concentration (MIC)
Protocol: as §1, §2

[3] = tested on: S. aureus FDA-209-p; experiment: antimicrobial activity in vitro, MIC by agar plate dilution method, S. aureus FDA-209-p; conditions: Staphylococcus aureus, FDA209, inoculum 1×10^6 cells/ml, read-out: minimal inhibitory concentration (MIC)
Protocol: as §1, §2

[4] = tested on: E. coli No. 29; experiment: antimicrobial activity in vitro, MIC by agar plate dilution method, E. coli No. 29; conditions: Escherichia coli, inoculum 1×10^6 cells/ml, read-out: minimal inhibitory concentration (MIC)
Protocol: as §1, §2

[5] = tested on: K. pneumoniae NCTC-9632; experiment: antimicrobial activity in vitro, MIC by agar plate dilution method, K. pneumoniae NCTC-9632; conditions: Klebsiella pneumoniae, NCTC9632, inoculum 1×10^6 cells/ml, read-out: minimal inhibitory concentration (MIC)
Protocol: as §1, §2

[6] = tested on: M. morganii ATCC-25830; experiment: antimicrobial activity in vitro, MIC by agar plate dilution method, M. morganii ATCC-25830; conditions: Morganella morganii, ATCC25830, inoculum 1×10^6 cells/ml, read-out: minimal inhibitory concentration (MIC)
Protocol: as §1, §2

[7] = tested on: P. aeruginosa NCTC-10490; experiment: antimicrobial activity in vitro, MIC by agar plate dilution method, P. aeruginosa NCTC-10490; conditions: Pseudomonas aeruginosa, NCTC10490, inoculum 1×10^6 cells/ml, read-out: minimal inhibitory concentration (MIC)
Protocol: as §1, §2

[8] = tested on: E. coli NIHJ; experiment: antimicrobial activity in vitro, MIC by agar plate dilution method, E. coli NIHJ; conditions: Escherichia coli, inoculum 1×10^6 cells/ml, read-out: minimal inhibitory concentration (MIC)
Protocol: as §1, §2

MIC [1] | MIC [2] | MIC [3] | MIC [4] | MIC [5] | MIC [6] | MIC [7] | MIC [8] | SMILES
≤ 0.025 µg/mL | 0.1 µg/mL (≈ 0.162 µM) | 0.2 µg/mL (≈ 0.324 µM) | ≤ 0.025 µg/mL | ≤ 0.025 µg/mL | ≤ 0.025 µg/mL | 6.25 µg/mL (≈ 10.1 µM) | ≤ 0.025 µg/mL | CO/N=C(\C(=O)N[C@@H]1C(=O)N2C(C(=O)[O-])=C(CSc3cc[n+](CC(=O)N4CCOCC4)cc3)OC[C@H]12)c1csc(N)n1 [No. 10, (6S,7S)-7-[2-(2-Aminothiazol-4-yl)-2-methoxyiminoacetamido]-3-[(1-morpholinocarbonylmethyl-4pyridinio)thiomethyl]-Δ^3 -O-2-isocephem-4-carboxylate (syn-isomer)]
0.2 µg/mL (≈ 0.337 µM) | 0.78 µg/mL (≈ 1.32 µM) | 0.1 µg/mL (≈ 0.169 µM) | 0.1 µg/mL (≈ 0.169 µM) | 0.39 µg/mL (≈ 0.658 µM) | 0.05 µg/mL (≈ 0.0843 µM) | 1.56 µg/mL (≈ 2.63 µM) | 0.2 µg/mL (≈ 0.337 µM) | Nc1nc(/C(=N/OC2CCCC2)C(=O)N[C@@H]2C(=O)N3C(C(=O)[O-])=C(CSc4cc[n+](CCl)cc4)OC[C@H]23)cs1 [No. 11, (6S,7S)-7-[2-(2-Aminothiazol-4-yl)-2-cyclopentyloxyiminoacetamido]-3-[(1-chloromethyl-4-pyridinio)thiomethyl]-Δ^3 -O-2-isocephem-4-carboxylate (syn-isomer)]
≤ 0.025 µg/mL | 0.1 µg/mL (≈ 0.166 µM) | 0.2 µg/mL (≈ 0.332 µM) | ≤ 0.025 µg/mL | ≤ 0.025 µg/mL | ≤ 0.025 µg/mL | 1.56 µg/mL (≈ 2.59 µM) | ≤ 0.025 µg/mL | CO/N=C(\C(=O)N[C@@H]1C(=O)N2C(C(=O)[O-])=C(CSc3cc[n+](CC(=O)N4CCCC4)cc3)OC[C@H]12)c1csc(N)n1 [No. 2, (6S,7S)-7-[2-(2-Aminothiazol-4-yl)-2-methoxyiminoacetamido]-3-[[1-(1-pyrrolidinylcarbonylmethyl)-4pyridinio]thiomethyl]-Δ^3 -O-2-isocephem-4-carboxylate (syn-isomer)]
0.1 µg/mL | 0.78 µg/mL | 0.1 µg/mL | 0.1 µg/mL | 0.39 µg/mL | 0.05 µg/mL | 0.78 µg/mL | 0.2 µg/mL | CCC(=O)C[n+]1ccc(SCC2=C(C(=O)[O-])N3C(=O)[C@@H](NC(=O)/C(=N\OC4CCCC4)c4csc(N)n4)[C@H]3CO2)cc1 [No. 7, (6S,7S)-7-[2-(2-Aminothiazol-4-yl)-2-cyclopentyloxyiminoacetamido]-3-[(1-propanoylmethyl-4-pyridinio)thiomethyl] -Δ^3 -O-2-isocephem-4-carboxylic acid sulfate (syn-isomer)]
0.39 µg/mL (≈ 0.581 µM) | 0.78 µg/mL (≈ 1.16 µM) | 0.2 µg/mL (≈ 0.298 µM) | 0.1 µg/mL (≈ 0.149 µM) | 0.2 µg/mL (≈ 0.298 µM) | 0.1 µg/mL (≈ 0.149 µM) | 0.78 µg/mL (≈ 1.16 µM) | 0.2 µg/mL (≈ 0.298 µM) | Nc1nc(/C(=N/OC2CCCC2)C(=O)N[C@@H]2C(=O)N3C(C(=O)[O-])=C(CSc4cc[n+](CC(=O)N5CCNCC5)cc4)OC[C@H]23)cs1 [No. 8, (6S,7S)-7-[2-(2-Aminothiazol-4-yl)-2-cyclopentyloxyiminoacetamido]-3-[[1-(1-piperazinylcarbonylmethyl)-4-pyridinio]thiomethyl]-Δ^3 -O-2-isocephem-4-carboxylate (syn-isomer)]
≤ 0.025 µg/mL | 0.1 µg/mL (≈ 0.183 µM) | 0.2 µg/mL (≈ 0.365 µM) | ≤ 0.025 µg/mL | ≤ 0.025 µg/mL | ≤ 0.025 µg/mL | 12.5 µg/mL (≈ 22.8 µM) | ≤ 0.025 µg/mL | C[n+]1ccc(SCC2=C(C(=O)[O-])N3C(=O)[C@@H](NC(=O)/C(=N\OCC(N)=O)c4csc(N)n4)[C@H]3CO2)cc1 [No. 5, (6S,7S)-7-[2-(2-Aminothiazol-4-yl)-2-carbamoylmethoxyiminoacetamido]-3-[(1-methyl-4-pyridinio)thiomethyl]-Δ^3 -O-2-isocephem-4-carboxylate (syn-isomer)]
≤ 0.025 µg/mL | 0.1 µg/mL (≈ 0.186 µM) | 0.2 µg/mL (≈ 0.373 µM) | ≤ 0.025 µg/mL | ≤ 0.025 µg/mL | ≤ 0.025 µg/mL | 1.56 µg/mL (≈ 2.91 µM) | ≤ 0.025 µg/mL | CO/N=C(\C(=O)N[C@@H]1C(=O)N2C(C(=O)[O-])=C(CSc3cc[n+](CCF)cc3)OC[C@H]12)c1csc(N)n1 [No. 14, (6S,7S)-7-[2-(2-Aminothiazol-4-yl)-2-methoxyiminoacetamido]-3-[[1-(2-fluoroethyl)-4-pyridinio]thiomethyl]-Δ^3 -O-2-isocephem-4-carboxylate (syn-isomer)]
0.2 µg/mL (≈ 0.339 µM) | 1.56 µg/mL (≈ 2.64 µM) | 0.1 µg/mL (≈ 0.169 µM) | 0.1 µg/mL (≈ 0.169 µM) | 0.39 µg/mL (≈ 0.66 µM) | 0.05 µg/mL (≈ 0.0847 µM) | 0.78 µg/mL (≈ 1.32 µM) | 0.2 µg/mL (≈ 0.339 µM) | Nc1nc(/C(=N/OC2CCCC2)C(=O)N[C@@H]2C(=O)N3C(C(=O)[O-])=C(CSc4cc[n+](CCF)cc4)OC[C@H]23)cs1 [No. 13, (6S,7S)-7-[2-(2-Aminothiazol-4-yl)-2-cyclopentyloxyiminoacetamido]-3-[[1-(2-fluoroethyl)-4-pyridinio]thiomethyl]-Δ^3 -O-2-isocephem-4-carboxylate (syn-isomer)]
0.2 µg/mL | 1.56 µg/mL | 0.1 µg/mL | 0.1 µg/mL | 0.39 µg/mL | 0.05 µg/mL | 1.56 µg/mL | 0.2 µg/mL | CN(C)C(=O)C[n+]1ccc(SCC2=C(C(=O)[O-])N3C(=O)[C@@H](NC(=O)/C(=N\OC4CCCC4)c4csc(N)n4)[C@H]3CO2)cc1 [No. 4, (6S,7S)-7-[2-(2-Aminothiazol-4-yl)-2-cyclopentyloxyiminoacetamido]-3-[(1-N,N-dimethylcarbamoylmethyl4-pyridinio)thiomethyl]-Δ^3 -O-2-isocephem-4-carboxylic acid sulfate (syn-isomer)]
0.1 µg/mL (≈ 0.167 µM) | 0.78 µg/mL (≈ 1.3 µM) | 0.05 µg/mL (≈ 0.0835 µM) | 0.05 µg/mL (≈ 0.0835 µM) | 0.2 µg/mL (≈ 0.334 µM) | 0.05 µg/mL (≈ 0.0835 µM) | 0.39 µg/mL (≈ 0.651 µM) | 0.1 µg/mL (≈ 0.167 µM) | Nc1nc(/C(=N/OC2CCCC2)C(=O)N[C@@H]2C(=O)N3C(C(=O)[O-])=C(CSc4cc[n+](CC5CC5)cc4)OC[C@H]23)cs1 [No. 12, (6S,7S)-7-[2-(2-Aminothiazol-4-yl)-2-cyclopentyloxyiminoacetamido]-3-[(1-cyclopropylmethyl-4-pyridinio)thiomethyl]-Δ^3 -O-2- -isocephem-4-carboxylic acid ditrifluoroacetate (syn-isomer)]
0.05 µg/mL (≈ 0.0821 µM) | 0.1 µg/mL (≈ 0.164 µM) | 0.05 µg/mL (≈ 0.0821 µM) | ≤ 0.025 µg/mL | 0.05 µg/mL (≈ 0.0821 µM) | 0.05 µg/mL (≈ 0.0821 µM) | 1.56 µg/mL (≈ 2.56 µM) | 0.05 µg/mL (≈ 0.0821 µM) | CO/N=C(\C(=O)N[C@@H]1C(=O)N2C(C(=O)[O-])=C(CSc3cc[n+](CC(=O)c4ccccc4)cc3)OC[C@H]12)c1csc(N)n1 [No. 1, (6S,7S)-7-[2-(2-Aminothiazol-4-yl)-2-methoxyiminoacetamido]-3-[(1-benzoylmethyl-4-pyridinio)thiomethyl]-Δ^3 -O-2-isocephem-4-carboxylate (syn-isomer)]
0.2 µg/mL (≈ 0.324 µM) | 1.56 µg/mL (≈ 2.53 µM) | 0.39 µg/mL (≈ 0.631 µM) | 0.1 µg/mL (≈ 0.162 µM) | 0.39 µg/mL (≈ 0.631 µM) | 0.05 µg/mL (≈ 0.0809 µM) | 3.13 µg/mL (≈ 5.07 µM) | 0.2 µg/mL (≈ 0.324 µM) | Nc1nc(/C(=N/OC2CCCC2)C(=O)N[C@@H]2C(=O)N3C(C(=O)[O-])=C(CSc4cc[n+](CC(=O)NO)cc4)OC[C@H]23)cs1 [No. 9, (6S,7S)-7-[2-(2-Aminothiazol-4-yl)-2-cyclopentyloxyiminoacetamido]-3-[(1-hydroxyaminocarbonylmethyl-4-pyridinio)thiomethyl]-Δ^3 -O-2-isocephem-4-carboxylate (syn-isomer)]
≤ 0.025 µg/mL | 0.2 µg/mL | 0.2 µg/mL | ≤ 0.025 µg/mL | ≤ 0.025 µg/mL | ≤ 0.025 µg/mL | 3.13 µg/mL | ≤ 0.025 µg/mL | CO/N=C(\C(=O)N[C@@H]1C(=O)N2C(C(=O)[O-])=C(CSc3cc[n+](CC(=O)N(C)C)cc3)OC[C@H]12)c1csc(N)n1 [No. 6, (6S,7S)-7-[2-(2-Aminothiazol-4-yl)-2-methoxyiminoacetamido]-3-[(1-N,N-dimethylcarbamoylmethyl-4-pyridinio)thiomethyl]-Δ^3 -O-2-isocephem-4-carboxylic acid sulfate (syn-isomer)]
0.2 µg/mL | 0.78 µg/mL | 0.1 µg/mL | 0.1 µg/mL | 0.39 µg/mL | 0.05 µg/mL | 0.78 µg/mL | 0.2 µg/mL | Nc1nc(/C(=N/OC2CCCC2)C(=O)N[C@@H]2C(=O)N3C(C(=O)[O-])=C(CSc4cc[n+](CC(=O)N5CCCC5)cc4)OC[C@H]23)cs1 [No. 3, (6S,7S)-7-[2-(2-Aminothiazol-4-yl)-2-cyclopentyloxyiminoacetamido]-3-[[1-(1-pyrrolidinylcarbonylmethyl)-4-pyridinio]thiomethyl]-Δ^3 -O-2-isocephem-4-carboxylic acid sulfate (syn-isomer)]
